Experiments:
Ca. Phytoplasma vitis = experiment: Open field testing on phytoplasma, ddPCR quantification of DNA and RNA in Pervinca rosea; assay type: in vivo; settings: 2 L/ha, endotherapy treatment, 48 hours after exposure, high values = reduced/no antibacterial activity; for % DNA: untreated 91; for % RNA: untreated 94
Method: Open Filed Testing on Phytoplasma—Antibacterial Activity on Ca. Phytoplasma vitis by Mixtures of Fatty Acids and Peptides
The activity on phytoplasma of three peptides (SEQ.ID.NO.: 1, 2 and 9), of crotonic and pelargonic acid and of the mixtures of these fatty acids with the aforementioned peptides were evaluated on Pervinca rosea suitably contaminated by Ca. Phytoplasma vitis.
The peptides of SEQ.ID.NO.: 1, 2 and 9 were dissolved in water at a concentration of 10% w/w. Aqueous solutions of crotonic and pelargonic acids were prepared at a concentration of 10% w/w. Aqueous solutions of peptides and solutions of fatty acids were mixed together, in order to obtain six different mixtures at a concentration of 10% w/w of peptide and acid.
The evaluation of the efficacy of the products used was evaluated with ddPCR (Droplet Digital PCR) technique for the quantification of the genetic material (DNA and RNA) after 48 hours from exposure to endotherapy treatment. High % DNA and RNA values are related to reduced/no antibacterial activity.

Fusarium graminearum = assay type: in vivo; settings: 2 L/ha of 10% w/w solution; one application 2 days after inoculation; incidence of affected leaves vs untreated

Molecule | % DNA (Ca. Phytoplasma vitis) [%] | % RNA (Ca. Phytoplasma vitis) [%] | Efficacy (%) 1° check (Fusarium graminearum) [%] | Efficacy (%) 2° check (Fusarium graminearum) [%] | Efficacy (%) 3° check (Fusarium graminearum) [%]
Rs_AFP2: plant defensin antimicrobial peptide, SEQ.ID.NO: 2, per se known (QKLCQRPSGTWSGVCGNNNACKNQCIRLEKARHGSCNYVFPAHKCICYFPC; None) | 81 | 80 | 38 | 34 | 25.4
Ps_Def1: plant defensin antimicrobial peptide, SEQ.ID.NO: 9 (RMCKTPSGKFKGYCVNNTNCKNVCRTEGFPTGSCDFHVAGRKCYCYKPCP; None) | 82 | 80 | 30 | 27 | 32
C/C=C/C(=O)O [Crotonic acid] | 76 | 84 | 8 | 7 | 10
CCCCCCCCC(=O)O [Pelargonic acid] | 84 | 86 | 10 | 8 | 9
Hs_AFP1: plant defensin antimicrobial peptide, SEQ.ID.NO: 1, per se known (DGVKLCDVPSGTWSGHCGSSSKCSQQCKDREHFAYGGACHYQFPSVKCFCKRQC; None) | 75 | 78 | 35 | 27.4 | 26.5

From patent US20240245059A1 (priority 2021, published 2024)
